These results are taken from US8778882B2, “Agent for strengthening calcium containing tissue and use thereof” (Hayashibara Co., Ltd., priority 2002, dated 2014).

The test system of assay [1] is mouse pre-osteoblastic cell MC3T3-E1. The assay can be described thus: Alkaline phosphatase activity in mouse pre-osteoblastic cells. Type of assay: cell-based. How it is done:
To increase number of osteoblastic cells having calcium-deposition activity is important for increasing bone mass. […] The activity is at low level in pre-osteoblastic cells and at high level in osteoblastic cells differentiated form the pre-osteoblastic cells. […] Since final ethanol concentration in the medium is 0.2% (v/v), α-MEM medium containing 0.2% (v/v) ethanol was prepared as a negative control. The cells were inoculated for eight days as changing the medium therewith to fresh medium with or without each sample per three days. Alkaline phosphatase activity was measured using “Alkaline Phospha B-Test Wako” (commercialized by Wako Pure Chemical Industries, Osaka, Japan) according with Kajii et al (Archives of Oral Biology, Vol. 44, pp. 233-241, (1999)). Briefly, to the above described mouse pre-osteoblastic cells washed with 1 ml of 0.25 M sucrose solution three times after removing the medium were added 0.45 ml of 50 mM carbonate salt buffer (pH9.8) containing 1 mM magnesium chloride and 50 mM sucrose and 0.05 ml of 3.4 mM disodium p-nitrophenyl phosphate in due course. The mixture was incubated at 25° C. for five minutes and admixed with 1.5 ml of 0.6N sodium hydroxide as a reaction terminator. Absorbance 405 nm of p-nitrophenol generated by alkaline phosphatase in the resulting mixture was measured, and the obtained values were used as values as alkaline phosphatase activity. […] The experiment was performed by the method according to Experiment 1 except that culture day in the medium containing each sample was three, six or nine, and concentration of each sample was 5, 10 or 20 μM. […] As a negative control, mediums containing ethanol in the above concentration were prepared for calculating relative activity to the activity of each control.

For assay [2] the test system is unchanged. The assay can be described thus: Calcium deposition amount by Calcium C Test Wako. Format: cell-based. The source says:
Other flavonoid compounds than kaempferol or hesperetin were investigated where they have the same effect or not. Flavone (commercialized by Kanto Kagaku, Tokyo, Japan), apigenin (commercialized by Funakoshi, Co., Ltd., Tokyo, Japan), flavonol (commercialized by Tokyo Kasei Kogyo, Co., Ltd., Tokyo, Japan), quercetin (commercialized by Kanto Kagaku, Tokyo, Japan), kaempferol (commercialized by Funakoshi, Co., Ltd., Tokyo, Japan), rutin (commercialized by Kanto Kagaku, Tokyo, Japan), flavanone (commercialized by Kanto Kagaku, Tokyo, Japan), naringenin (commercialized by Ardrich Corporation), hesperetin (commercialized by Funakoshi, Co., Ltd., Tokyo, Japan), hesperidin (commercialized by Kanto Kagaku, Tokyo, Japan), chalcone (commercialized by Merk Corporation), fuloretin (commercialized by Sigma Corporation), catechin (commercialized by Sigma Corporation), ipriflavone (commercialized by Daito Corporation, Toyama, Japan), taxifolin (commercialized by Funakoshi, Co., Ltd., Tokyo, Japan), sulfuretin (commercialized by Funakoshi, Co., Ltd.; Tokyo, Japan), or cyanidin (commercialized by Funakoshi, Co., Ltd., Tokyo, Japan) was selected as test samples. Alkaline phosphatase activity was measured by the method of Experiment 1. Calcium deposition was measured by usual method using “Calcium C Test Wako” (commercialized by Wako Pure Chemical Industries, Osaka, Japan), briefly, cultured cells were washed with 1 ml of Dulbecco phosphate buffer saline three times after removing the medium. To the resultant was added 0.5 ml of 2N hydrochloric acid to resolve deposited calcium. To 5 μl of the resultant solution were added 0.5 ml of 0.88M monoethanolamine buffer (pH11) and 0.05 ml of 0.63 mM o-cresolphthalein complexone solution (binding to calcium ion to form chelate complex) containing 69 mM 8-quinolinol and mixed. Calcium amount per one hole of the plate was calculated by measuring absorbance 570 nm of the resultants and standardizing with a standard calcium solution. The judgement of alkaline phosphatase activity or calcium deposition amount of each sample was to calculate the relative activity or the relative calcium deposition amount to the negative control (only medium containing 0.2% (v/v) ethanol) and to compare each other.
The enhancement of calcium deposition between kaempferol and ipripfavone were compared. Test samples and their adding manner were same as Experiment 4. Calcium deposition amount was measured by usual method using “Calcium C Test Wako” (commercialized by Wako Pure Chemical Industries, Osaka, Japan); briefly, cultured cells were washed with 1 ml of Dulbecco phosphate buffer saline three times after removing the medium. To the resultant was added 0.5 ml of 2N hydrochloric acid to resolve deposited calcium. To 5 μl of the resolving solution were added 0.5 ml of 0.88M monoethanolamine buffer (pH11) and 0.05 ml of 0.63 mM o-cresolphthalein complexone solution (binding to calcium ion to form chelate complex) containing 69 mM 8-quinolinol and mixed, Calcium amount per one hole of the plate was calculated by measuring absorbance 570 nm of the resultants and standardizing with a standard calcium solution.
Kaempferol or hesperetin in combination with ipriflavone, or a kind of isoflavones, was investigated whether to enhance calcium deposition or not. Methods for preparing samples and culturing the cells were the same method described in Experiment 1 except culturing the cells for five days, Method for measuring calcium was the same method described in Experiment 3 and 5. Final ethanol concentration of the medium containing each sample was adjusted as same concentration.

As to `COc1ccc([C@@H]2CC(=O)c3c(O)cc(O)cc3O2)cc1O` [Hesperetin], the “enhancement of alkaline phosphatase activity compared with ipriflavone (FIG. 1)” value in assay [1] (MC3T3-E1, 5, 10 or 20 μM, day three, six or nine) was “equally enhances”. Further, the “Relative Alkaline Phosphatase Activity (%)” value in assay [1] (flavonoid comparison, method of Experiment 1, relative to 0.2% (v/v) ethanol negative control) is 116%. The “enhancing calcium deposition in combination with ipriflavone versus single use (FIGS. 3 and 4)” value in assay [2] (5, 10 or 20 μM each, five days culture) was “a synergy effect was confirmed”. Besides, the “Relative Calcium Deposition Amount (%)” value in assay [2] (flavonoid comparison, Calcium C Test Wako, relative to 0.2% (v/v) ethanol negative control) amounted to 289%.
